SMILES	melting point
NNC(=O)c1cc(Br)c[nH]1	215 to 219 °C
Cn1nc(CCl)[nH]c1=O	139 to 141 °C
CCn1nnc2cc(C(=O)O)ccc21	228 to 230 °C
CS(=O)(=O)CC1(CC(=O)O)CC1	89 to 91 °C
Nc1ccc(-n2ncc3ccccc32)cc1	158 to 160 °C
O=C(O)CC(=O)Nc1nccs1	181 to 183 °C
COc1ccc(-c2cc(C(=O)O)c3ccccc3n2)cc1OC	234 to 236 °C
O=C1NC(=O)C(CCS)N1 (stereo not drawn)	133 to 135 °C
Nc1nc(=O)cn[nH]1	249 to 251 °C
Cc1cc(C(=O)O)c2c(C3CC3)noc2n1	201 to 203 °C
COc1cccc(NC(=O)CCl)c1	73 to 75 °C
O=C(O)CCC(=O)c1ccc2c(c1)CCC2	123 to 125 °C
CCOC(=O)COc1ccccc1O	51 to 53 °C
Cc1cc(CSc2ccccc2C(=O)O)on1	157 to 161 °C
COC(=O)C1CCN(C(=O)c2ccc(Cl)c(Cl)c2)CC1	103 to 105 °C
Sc1nnc(CN2CCCC2)n1-c1ccc(Cl)cc1	260 to 262 °C
Cc1nn(-c2ccccc2)c(Cl)c1CO	89 to 91 °C
Cc1c(C(=O)O)oc2c(Cl)cc(Br)cc12	272 to 274 °C
Nc1ccc2c(N)n[nH]c2c1	209 to 211 °C
O=C(O)C1Cc2ccccc2CN1S(=O)(=O)c1ccc(F)cc1 (stereo not drawn)	99 to 101 °C
Cc1ccc(Oc2ccc(N)cc2)nn1	114 to 116 °C
O=C(O)c1cccn1Cc1ccccn1	172 to 174 °C
Cc1c(Cl)cnc(NC(=O)CCl)c1Cl	268 to 270 °C
O=C(O)c1ccn(-c2cccc(Br)c2)n1	142 to 144 °C
CC(=O)NCC(=O)NCC(=O)O	174 to 176 °C

SMILES	melting point
CC(C)C(Cl)C(=O)O (stereo not drawn)	33 to 35 °C
Cn1cc(C#N)ccc1=O	159 to 161 °C
Cn1cc(CCC(=O)O)cn1	137 to 139 °C
CC(Cl)C(=O)Nc1cccc2ccccc12 (stereo not drawn)	146 to 148 °C
Cc1cc2n(n1)CCC(=O)N2	221 to 223 °C
COc1cc(N)ccc1NC(C)=O	121 to 123 °C
CCc1nc(N)sc1C	73 to 75 °C
CCc1ccc(NC(=O)c2nnc(CCl)s2)cc1	126 to 128 °C
Fc1cccc2c1CCCN2	45 to 47 °C
COc1ccc(-c2noc(CCl)n2)cc1OC	101 to 103 °C
Cc1cc(C)cc(-c2cc(N)[nH]n2)c1	75 to 77 °C
CC(C)C(Br)C(=O)N1CCc2sccc2C1 (stereo not drawn)	84 to 86 °C
O=C(CNC1CC1)NC1CC1	47 to 49 °C
CCOc1cc(F)ccc1[N+](=O)[O-]	31 to 33 °C
O=Cc1ccccc1-n1cncn1	113 to 115 °C
NC(=S)c1cc2ccccc2o1	146 to 148 °C
COc1cccc(C2(C(=O)O)CCCC2)c1	125 to 127 °C
COc1ccc(C(=O)O)c(I)c1	182 to 184 °C
O=C1C2C3CC4C5C3C1C5C1(OCCO1)C42 (stereo not drawn)	73 to 75 °C
CC1(C)CCC(CC(=O)O)c2ccccc21 (stereo not drawn)	81 to 83 °C
CC(C)CC(=O)Cc1ccc(Cl)cc1Cl	28 to 30 °C
O=C(O)CN1C(=O)CCCc2sccc21	138 to 140 °C
CS(=O)(=O)c1ccc(OCCCCC(=O)O)cc1	125 to 127 °C
O=S1(=O)CCCN1Cc1ccc(Br)cc1	58 to 60 °C
Cc1nc2c(c(C)c1CC(=O)O)c(=O)[nH]n2C	239 to 241 °C

SMILES	melting point
CCCOc1ccc(C(=O)O)cc1N	122 to 124 °C
O=C1NCCc2ccc(F)cc21	119 to 121 °C
CCc1cc(=O)[nH]c(-c2ccnc(Cl)c2)n1	217 to 219 °C
NC(=O)Nc1ccccc1-c1ccccc1	155 to 157 °C
CC(C)(C)OC(=O)NC(C(=O)O)C(C)(C)C (stereo not drawn)	117 to 119 °C
COCCOc1ccc(/C(C)=N\O)cc1OC	124 to 126 °C
NC(=O)C(Cl)c1ccc(Br)cc1 (stereo not drawn)	164 to 166 °C
CC(=O)c1ccc(F)cc1N(C)C	57 to 59 °C
N#CCCn1cc(C(=O)O)c(-c2cccc([N+](=O)[O-])c2)n1	242 to 244 °C
NC(=S)c1ccnc(-n2cncn2)c1	258 to 260 °C
Nc1ccc(OCc2cccc(F)c2)c(F)c1	43 to 45 °C
Cc1nc(N(C)C)sc1C=O	116 to 118 °C
O=S(=O)(c1ccc2c(c1)CCCC2)N1CCNCC1	110 to 112 °C
NNC(=O)c1cn(-c2ccccc2)nc1-c1ccccc1	161 to 163 °C
CSc1nc(C2CC2)cc(C(=O)O)c1C#N	181 to 183 °C
O=C(O)c1c[nH]c2cccc([N+](=O)[O-])c12	170 to 172 °C
O=C(O)CN1C(=O)NC2(CCCC2)C1=O	165 to 167 °C
CCCCCc1cc(N)on1	40 to 42 °C
NCc1ccc(N2CCCC(C(N)=O)C2)cc1 (stereo not drawn)	169 to 171 °C
CC(C)OCc1ccc(C(=O)O)cc1	114 to 116 °C
Nc1ccc(CN2C(=O)Cc3ccc(Cl)cc32)cc1	129 to 131 °C
O=c1cc(CO)c2ccc(O)cc2o1	221 to 223 °C
O=C(CCl)NCCc1ccc2c(c1)OCCO2	72 to 76 °C
